Measurements reported in PMC6287599, “2,6-Bis(2-Benzimidazolyl)Pyridine (BBP) Is a Potent and Selective Inhibitor of Small Conductance Calcium-Activated Potassium (SK) Channels” (Frontiers in Pharmacology, 2018).
Entries after “also recorded” stand apart in the source; their conditions may differ.

What was measured:
Format in all cases: cell-based
[1] = biological target: Kv7.1/KCNE1 (Homo sapiens, UniProt P51787); assay: Two-electrode voltage clamp in Xenopus laevis oocytes, Kv7.1/KCNE1; details: BBP 10 μM, TEVC, n = 5
Protocol: (§1) cRNA was prepared from linearized plasmids using the mMESSAGE mMACHINE T7 kit (Ambion, USA) and quantified by UV spectroscopy (NanoDrop, Thermo Scientific, Wilmington, USA). Xenopus laevis oocytes were acquired from EcoCyte Bioscience (Castrop-Rauxel, Germany). Oocytes were injected with 50 nL cRNA and currents were recorded after 2 days of incubation at 19°C. Currents were recorded at a sampling rate of 10 kHz using a TEVC amplifier (Dagan CA-1B; IL, USA), and borosilicate glass recording electrodes (Module Ohm, Herlev, Denmark), made with a DMZ Universal Puller (Zeitz Instruments, Martinsried, Germany) with a resistance of 0.5–1 MΩ when filled with 2 M KCl. Oocytes were superfused with Kulori (pH 7.4) solution containing NaCl 90 mM, KCl 4 mM, MgCl2 1 mM, CaCl2 1 mM, 4-(2-hydroxyethyl)-1-piperazineethanesulfonic acid 5 mM, and currents were elicited with the voltage protocols previously indicated (Skarsfeldt et al., [2016]), from a holding potential of −80 mV. […]
(§2) To assess the effect of BBP on other calcium-activated potassium channels (hBK, hSK3 WT, rSK3 H491N, and hIK), each individual current was first normalized to its cell size using membrane's capacitance (pA/pF) before statistical analysis. […] Statistical significance between saline and the effect of both BBP and the corresponding reference compound was determined for each channel using one-way ANOVA analysis. […]

[2] = biological target: Kv1.5 (Homo sapiens, UniProt P22460); assay: Two-electrode voltage clamp in Xenopus laevis oocytes, Kv1.5; details: BBP 10 μM, TEVC, n = 5
Kv1.5, sequence (P22460 whole entry): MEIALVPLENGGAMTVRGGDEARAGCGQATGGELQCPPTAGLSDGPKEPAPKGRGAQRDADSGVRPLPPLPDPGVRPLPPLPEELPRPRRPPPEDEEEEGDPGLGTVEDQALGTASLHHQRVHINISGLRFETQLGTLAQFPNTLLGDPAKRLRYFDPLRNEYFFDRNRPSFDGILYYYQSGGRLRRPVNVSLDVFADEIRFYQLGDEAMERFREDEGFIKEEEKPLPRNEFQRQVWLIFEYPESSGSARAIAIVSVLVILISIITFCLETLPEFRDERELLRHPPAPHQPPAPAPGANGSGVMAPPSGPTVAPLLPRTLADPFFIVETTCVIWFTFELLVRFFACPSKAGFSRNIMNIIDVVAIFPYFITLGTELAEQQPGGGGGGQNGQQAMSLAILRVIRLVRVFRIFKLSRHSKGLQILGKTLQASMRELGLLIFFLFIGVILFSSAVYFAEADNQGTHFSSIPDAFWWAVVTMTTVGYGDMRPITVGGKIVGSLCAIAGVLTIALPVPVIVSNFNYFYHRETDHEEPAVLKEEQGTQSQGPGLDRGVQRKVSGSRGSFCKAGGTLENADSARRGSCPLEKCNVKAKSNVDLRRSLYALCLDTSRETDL
Protocol: as §1, §2

[3] = biological target: hSK2 (Homo sapiens, UniProt Q9H2S1); assay: Automated patch clamp (QPatch 16), whole cell, stable HEK293 cell line expressing hSK2; details: HEK stable line, 400 nM free intracellular calcium, mean ± SEM, n = 8
Protocol: Three different stable HEK293 cell lines expressing hSK1, hSK2 or hSK3 (NeuroSearch A/S, Ballerup, Denmark) and a CHO stable cell line expressing hERG (University of Copenhagen, Copenhagen, Denmark) were used for automated patch clamp. These cells were cultivated and prepared as previously described (Skarsfeldt et al., [2016]).
Automated patch clamp (QPatch 16, Sophion, Denmark) on SK-expressing HEK293 cell lines was conducted as previously described (Simó-Vicens et al., [2017b]). Briefly, SK currents were elicited by voltage-ramps starting at −80 mV and finishing at +80 mV from a holding potential of 0 mV. Extracellular solution contained 0.1 mM CaCl2, 3 mM MgCl2, 154 mM KCl, 10 mM HEPES and 10 mM glucose with pH 7.4. Intracellular solution for SK experiments contained 8.106 mM CaCl2 (final free calcium concentration of 400 nM), 1.167 mM MgCl2, 10 mM EGTA, 154 mM KCl, 10 mM HEPES, 31.25/ 10 mM KOH/EGTA and 15 mM KOH with pH 7.2. Automated patch clamp on hERG-expressing CHO cell line was performed also as previously described (Skarsfeldt et al., [2016]).
Individual IC50 values were calculated for each cell with the built-in nonlinear fit log(inhibitor) vs. normalized response equation:
Where Y is the normalized response, from 100, corresponding to current recorded during saline perfusion, down to 0, corresponding to currents recorded in the presence of bicuculline methiodide 100 μM. […]

IC50 [3]: 400 ± 100 nM
Compound: c1cc(-c2nc3ccccc3[nH]2)nc(-c2nc3ccccc3[nH]2)c1 [BBP, 2,6-Bis(2-benzimidazolyl)pyridine]
Effect on Kv7.1/KCNE1 current [1]: did not have any effect; also recorded: did not significantly affect
Effect on Kv1.5 current [2]: did not have any effect; also recorded: did not significantly affect
